Literature values in patent publication US8017623B2 (Trinity Laboratories, Inc., priority 2008, dated 2011).
Counter-ions that a name gives are not always drawn. Like-named read-outs stand apart in the source and are kept apart here.

Assays:
females = conditions: for mean plasma bromide concentration at the end of the treatment: females, three menstrual cycles
thyroid = conditions: rats, normal chloride intake
[1] = rat, normal
[2] = for peak plasma dextromethorphan concentration (mean) / peak plasma dextromethorphan concentrations (range): chronic oral dosing of 120 mg daily, divided doses
thyroid gland = conditions: rats fed diets containing 4800 or 19200 ppm; from 3 days, constant over 12 weeks

COc1ccc2c(c1)[C@]13CCCC[C@@H]1[C@H](C2)N(C)CC3 [Dextromethorphan Hydrobromide]
solubility (at 20° C.): 1.5%
solubility (at 85° C.): 25%
solubility (below 20° C.): sparingly soluble

Br [bromide]
quantitative analysis of the electroencephalogram (EEG) (females; females receiving 9 mg Br/kg/day): only a marginal effect
serum thyroxine, free thyroxine, triiodothyronine, thyrotropine and thyroxine-binding globulin (females; females, 0, 4 and 9 mg Br/kg/day): In none of the three groups were significant changes observed
mean plasma bromide concentration at the end of the treatment (females; 4 mg Br/kg/day): 3.22 mmol/L
mean plasma bromide concentration at the end of the treatment (females; 9 mg Br/kg/day): 7.99 mmol/L
NOAEL based on effects on the thyroid (thyroid): 240 ppm bromide
NOAEL based on effects on the thyroid (thyroid; equivalent dose): 12 mg bromide/kg bw/day
half-life [1]: 72 h

COc1ccc2c(c1)[C@]13CCCC[C@@H]1[C@H](C2)N(C)CC3 [Dextromethorphan, 3-methoxy-17-methyl-9a, 13a, 14 a-morphinan]
conjugated dextrorphan excreted ([2]; 24 hour period): up to 30%
dose excreted unchanged in the urine ([2]; 24 hour period): less than 2.5%
peak plasma dextromethorphan concentration (mean) ([2]; extensive metabolizers): 2.4 ng/mL
peak plasma dextromethorphan concentrations (range) ([2]; extensive metabolizers): 0.5 to 5.9 ng/mL
peak plasma dextromethorphan concentration (mean) ([2]; poor metabolizers): 207 ng/mL
peak plasma dextromethorphan concentrations (range) ([2]; poor metabolizers): 182 to 231 ng/mL
peak concentration in serum ([2]; single 20 mg oral dose): 1.8 ng/mL
time of peak serum concentration ([2]; single 20 mg oral dose): 2.5 h

[Br-].[Na+] [sodium bromide]
NOAEL based on effects on the thyroid (thyroid): 300 ppm sodium bromide
effect on reproduction (rats; 1200 ppm): no effects on reproduction were observed
effect on reproduction (rats; 4800 ppm): fertility and viability of the offspring were reduced
effect on reproduction (rats; 19200 ppm (highest dose level)): complete infertility
thyroxine concentrations (thyroid gland): significantly decreased
medical history, physical examination, haematology, clinical chemistry and urine analyses (healthy volunteers; 4 or 9 mg Br/kg/day, except for incidental nausea): no changes were observed
serum thyroxine and triiodothyronine at the end of the study compared to pre-administration values (healthy volunteers; females receiving 9 mg Br/kg/day, concentrations remained within normal limits): significant increase
mean plasma bromide concentration at the end of treatment (healthy volunteers; females, 4 mg Br/kg/day oral, three full cycles): 3.05 mmol/L
mean plasma bromide concentration at the end of treatment (healthy volunteers; females, 9 mg Br/kg/day oral, three full cycles): 4.93 mmol/L
mean plasma bromide concentration at the end of treatment (healthy volunteers; males, 4 mg Br/kg/day oral, 12 weeks): 2.14 mmol/L
mean plasma bromide concentration at the end of treatment (healthy volunteers; males, 9 mg Br/kg/day oral, 12 weeks): 4.30 mmol/L
